In brackets after ≈: the same amount, converted by molar mass.
Experiments:
MHEC 5T = assay: Cytotoxic activity, MTT colorimetric cell growth assay; format: cell-based; conditions: MHEC5-T; MHEC 5T cells, 72 h cultivation with agent, 37° C.; read-out: Cell line and cyctotoxic acivity IC50, MHEC 5T
Method: (§1) Experiments were performed in microtiter plates (2×10^4 cells/cm^2) at 37° C. After a precultivation period of 24 h the antineoplastic agent was added and cultivation was continued for 72 h. Cell growth was determined by a colorimetric assay based on the conversion of 3-(4,5-dimethyl-2-thiazolyl)-2,5-diphenyltetrazolium (MMT) to a blue formazan product using live mitochondria according to Mosmann, J. Immunolog. Methods 1983, 65, 55.

EA.hy 926 = assay: as above; format: cell-based; conditions: Homo sapiens; EA.hy 926 cells, 72 h cultivation with agent, 37° C.; read-out: Cell line and cyctotoxic acivity IC50, EA.hy 926
Method: as §1

O=c1[nH]c(=O)n(COCCCCCCCCCCCCO)cc1F [Compound 3b, 5-Fluoro-1-((12′-hydroxydodecyloxy)-methyl)-uracil]
IC50 (MHEC 5T): 14 µg/mL (≈ 40.6 µM) | IC50 (EA.hy 926): 45 µg/mL (≈ 131 µM)

— patent US20040266747A1, “Long chain fatty alcohol substituents in antineoplastic agents” (priority 2001, published 2004)
